From US9221765B2, “Inhibition and dispersion of bacterial biofilms with benzimidazole derivatives” (North Carolina State University, priority 2009, dated 2015)
Counter-ions that a name gives are not always drawn. Like-named read-outs stand apart in the source and are kept apart here. Each block holds one compound with its values, some of them ahead of it.

Key:
MRSA [1] = experiment: Inhibition of MRSA biofilm formation (crystal violet); format: cell-based, Staphylococcus aureus; settings: for IC50: concentration that inhibits 50% biofilm development; for ability to inhibit biofilm formation: 100 μM (highest concentration tested)
Procedure: (§1) A dose-response study was then initiated in which both the IC50 and EC50 value of each compound towards the bacterial strains were determined (Table 1). Here, IC50 is defined as the concentration of compound that inhibits 50% biofilm development while EC50 is defined as the concentration of compound that disperses 50% of a pre-formed biofilm.
(§2) Procedure to Determine the Inhibitory Effect of Test Compounds on E. faecium, MRSA, S. epidermidis, PAO1 and MDRAB Biofilm Formation:
(§3) Inhibition assays were performed by taking an overnight culture of bacterial strain and subculturing it at an OD600 of 0.01 into the necessary media (brain heart infusion for E. faecium, tryptic soy broth with a 0.5% glucose supplement (TSBG) for MRSA, Luria-Bertani (LB) media for MDRAB, Luria-Bertani media without NaCl (LBNS) for PAO1 and tryptic soy broth with a 0.5% glucose supplement and a 3.0% NaCl supplement (TGN) for S. epidermidis. Stock solutions of predetermined concentrations of the test compound were then made in the necessary media. These stock solutions were aliquoted (100 μL) into the wells of the 96-well PVC microtiter plate. Sample plates were then wrapped in GLAD Press n′ Seal® followed by an incubation under stationary conditions for 24 h at 37° C. After incubation, the media was discarded from the wells and the plates were washed thoroughly with water. Plates were then stained with 100 μL of 0.1% solution of crystal violet (CV) and then incubated at ambient temperature for 30 min. Plates were washed with water again and the remaining stain was solubilized with 200 μL of 95% ethanol. A sample of 125 μL of solubilized CV stain from each well was transferred to the corresponding wells of a polystyrene microtiter dish. Biofilm inhibition was quantitated by measuring the OD540 of each well in which a negative control lane wherein no biofilm was formed served as a background and was subtracted out.
as §3, with “2-(2-amino-1H-benzo[d]imidazol-6-ylcarbamoyl)-3,4,5,6-tetrachlorobenzoic acid hydrochloride” for “test compound”, “media. Samples were then doped with 10.0 μM FeSO4 with samples with no test compound to examine effects of 10.0 μM FeSO4 on biofilm formation.” for “media.”

[2] = test system: vancomycin-resistant Enterococcus faecium (VRE); experiment: Inhibition of VRE (E. faecium) biofilm formation (crystal violet); format: cell-based; settings: for ability to inhibit biofilm formation: 100 μM (highest concentration tested)
Procedure: as §1, §2, §3
as §3, with “2-(2-amino-1H-benzo[d]imidazol-6-ylcarbamoyl)-3,4,5,6-tetrachlorobenzoic acid hydrochloride” for “test compound”, “media. Samples were then doped with 10.0 μM FeSO4 with samples with no test compound to examine effects of 10.0 μM FeSO4 on biofilm formation.” for “media.”

S. epidermidis [3] = experiment: Inhibition of S. epidermidis biofilm formation (crystal violet); format: cell-based, Staphylococcus epidermidis; settings: for IC50: concentration that inhibits 50% biofilm development; for ability to inhibit biofilm formation: 100 μM (highest concentration tested)
Procedure: as §1, §2, §3
as §3, with “2-(2-amino-1H-benzo[d]imidazol-6-ylcarbamoyl)-3,4,5,6-tetrachlorobenzoic acid hydrochloride” for “test compound”, “media. Samples were then doped with 10.0 μM FeSO4 with samples with no test compound to examine effects of 10.0 μM FeSO4 on biofilm formation.” for “media.”

MRSA [4] = experiment: Dispersion of preformed MRSA biofilm; format: cell-based, Staphylococcus aureus; settings: concentration that disperses 50% of a pre-formed biofilm
Procedure: as §1
(§4) Procedure to Determine the Dispersal Effect of Test Compounds on E. faecium, MRSA and S. epidermidis Preformed Biofilms:
(§5) Dispersion assays were performed by taking an overnight culture of bacterial strain and subculturing it at an OD600 of 0.01 into the necessary media (brain heart infusion for E. faecium, tryptic soy broth with a 0.5% glucose supplement (TSBG) for MRSA and tryptic soy broth with a 0.5% glucose supplement and a 3.0% NaCl supplement (TGN) for S. epidermidis. The resulting bacterial suspension was aliquoted (100 μL) into the wells of a 96-well PVC microtiter plate. Plates were then wrapped in GLAD Press n′ Seal® followed by an incubation under stationary conditions at ambient temperature to establish the biofilms. After 24 h, the media was discarded from the wells and the plates were washed thoroughly with water. Stock solutions of predetermined concentrations of the test compound were then made in the necessary media. These stock solutions were aliquoted (100 μL) into the wells of the 96-well PVC microtiter plate with the established biofilms. Media alone was added to a subset of the wells to serve as a control. Sample Plates were then incubated for 24 h at 37° C. After incubation, the media was discarded from the wells and the plates were washed thoroughly with water. Plates were then stained with 100 μL of 0.1% solution of crystal violet (CV) and then incubated at ambient temperature for 30 min. Plates were washed with water again and the remaining stain was solubilized with 200 μL of 95% ethanol. A sample of 125 μL of solubilized CV stain from each well was transferred to the corresponding wells of a polystyrene microtiter dish. Biofilm dispersion was quantitated by measuring the OD540 of each well in which a negative control lane wherein no biofilm was formed served as a background and was subtracted out.

[5] = test system: vancomycin-resistant Enterococcus faecium (VRE); experiment: Dispersion of preformed VRE (E. faecium) biofilm; format: cell-based; settings: concentration that disperses 50% of a pre-formed biofilm
Procedure: as §1, §4, §5

S. epidermidis [6] = experiment: Dispersion of preformed S. epidermidis biofilm; format: cell-based, Staphylococcus epidermidis; settings: concentration that disperses 50% of a pre-formed biofilm
Procedure: as §1, §4, §5

[7] = Divalent zinc binding via 1H NMR spectroscopy; settings: 0, 0.5, 1.0 equivalents ZnCl2; DMSO
Procedure: Given this Zn(II)-dependence, the ability of 3 to bind zinc directly was determined to ascertain if the mechanism was potentially occurring via a Zn(II)-binding mechanism. To answer this question, an ^1H NMR binding experiment was performed in which the chemical shifts of 3 were measured in the presence of 0 equivalents, 0.5 equivalents, and 1.0 equivalents ZnCl2. […] As a control, the same experiment was performed with FeSO4.
Procedure to Determine the Divalent Zinc Binding Effects of Test Compounds via ^1H NMR Spectroscopy:
^1H NMR Spectra were obtained of the test compounds in DMSO on a 400 MHz NMR in the absence and in the presence of one equivalent of ZnCl2. 2-(2-amino-1H-benzo[d]imidazol-5-ylcarbamoyl)-3,4,5,6-tetrachlorobenzoic acid hydrochloride was tested at a 228 mM. 2,3,4,5-tetrachloro-6-(phenylcarbamoyl)benzoic acid was tested at 275 mM. 1H-benzo[d]imidazol-2-amine hydrochloride was tested at 649 mM.

[8] = test system: E. faecium, MRSA and S. epidermidis; experiment: Mitigating effects of zinc on biofilm formation inhibition; format: cell-based; settings: 200.0 μM ZnCl2 alone, no test compound
Description: Next, Zn(II) homeostasis was examined. Zn(II) has been implicated in the pathogenesis of Gram-positive bacterial infections and may be an important regulator of biofilm formation (Conrady, D. G.; Brescia, C. C.; Horii, K.; Weiss, A. A.; Hassett, D. J.; Herr, A. B. Proceedings of the National Academy of Sciences of the United States of America 2008, 105, 19456-19461).
Procedure to Determine the Mitigating Effects of Zinc on E. faecium, MRSA and S. epidermidis Biofilm Formation Inhibition Induced by 2-(2-Amino-1H-Benzo[d]Imidazol-6-Ylcarbamoyl)-3,4,5,6-Tetrachlorobenzoic Acid Hydrochloride:
as §3, with “50.0 μM 2-(2-amino-1H-benzo[d]imidazol-6-ylcarbamoyl)-3,4,5,6-tetrachlorobenzoic acid hydrochloride” for “predetermined concentrations of the test compound”, “media. Samples were then doped with 25.0, 50.0, 75.0, 100.0, 150.0 and 200.0 μM ZnCl2 with controls in which no test compound was added to examine effects of 200.0 μM ZnCl2 on biofilm formation.” for “media.”

MRSA [9] = experiment: Inhibition of MRSA biofilm formation (crystal violet); format: cell-based, Staphylococcus aureus; settings: FeSO4 alone, no test compound
[10] = VRE, concentration that inhibits 50% biofilm development, read-out: IC50

Structure (SMILES): CC(C)(CC(=O)O)CC(=O)Nc1ccc2nc(N)[nH]c2c1 [Compound 7]
- IC50 (MRSA [1]; read-out: IC50): 69 ± 2.7 µM
- IC50 [2, 10]: 0.9 ± 0.3 µM
- IC50 (S. epidermidis [3]): 240 ± 20 µM
- EC50 (MRSA [4]; read-out: EC50 (converted)): 205 µM
- EC50 ([5]; read-out: EC50 (converted)): 94 µM
- EC50 (S. epidermidis [6]): 260 µM

Structure (SMILES): Nc1nc2ccc(NC(=O)c3cccc4cccc(C(=O)O)c34)cc2[nH]1 [Compound 9, 8-(2-amino-1H-benzo[d]imidazol-6-ylcarbamoyl)-1-naphthoic acid hydrochloride]
- IC50 (MRSA [1]; Staphylococcus aureus): > 300 µM
- IC50 [2]: 0.9 ± 0.4 µM
- IC50 (S. epidermidis [3]; Staphylococcus epidermidis): 6.2 ± 1.2 µM
- EC50 (MRSA [4]; Staphylococcus aureus): > 300 µM
- EC50 [5]: 6.3 µM
- EC50 (S. epidermidis [6]; Staphylococcus epidermidis): 30 µM

Structure (SMILES): [Cl-].[Cl-].[Zn+2] [ZnCl2, reference compound]
- effect on biofilm formation [8]: no effect on biofilm formation

Structure (SMILES): Nc1nc2ccc(NC(=O)[C@@H]3C4C=CC(C4)[C@@H]3C(=O)O)cc2[nH]1 (stereo partly drawn) [Compound 5, (2S,3R)-3-(2-amino-1H-benzo[d]imidazol-6-ylcarbamoyl)bicyclo[2.2.1]hept-5-ene-2-carboxylic acid hydrochloride]
- IC50 (MRSA [1]; Staphylococcus aureus): 16 ± 2.9 µM
- IC50 [2]: 63 ± 9.1 µM
- IC50 (S. epidermidis [3]; Staphylococcus epidermidis): 4.1 ± 2 µM
- EC50 (MRSA [4]; Staphylococcus aureus): 63 µM
- EC50 [5]: 107 µM
- EC50 (S. epidermidis [6]; Staphylococcus epidermidis): 45 µM

Structure (SMILES): O=S(=O)([O-])[O-].[Fe+2] [FeSO4, reference compound]
- increase of biofilm formation (biofilm mass) ([2]; E. faecium, FeSO4 alone, no test compound): 1.37 times
- increase of biofilm formation (biofilm mass) (S. epidermidis [3]; FeSO4 alone, no test compound): 1.25 times
- increase of biofilm formation (biofilm mass) (MRSA [9]): 1.28 times

Structure (SMILES): Nc1nc2ccc(NC(=O)[C@H]3[C@@H](C(=O)O)C4(Cl)C(Cl)=C(Cl)C3(Cl)C4(Cl)Cl)cc2[nH]1 (relative stereo) [Compound 4]
- IC50 (MRSA [1]; read-out: IC50): 1.5 ± 0.4 µM
- IC50 [2, 10]: 210 ± 35 µM
- IC50 (S. epidermidis [3]): 1.9 ± 0.4 µM
- EC50 (MRSA [4]; read-out: EC50 (converted)): 6.6 µM
- EC50 ([5]; read-out: EC50 (converted)): 280 µM
- EC50 (S. epidermidis [6]): 19 µM

Further lines, with some results ahead:

- zinc binding, change of 1H NMR signals [7]: no change
Structure (SMILES): Nc1nc2ccccc2[nH]1 [Compound 17, reference compound]
- ability to inhibit biofilm formation (MRSA [1]): Neither compound was able to inhibit
- ability to inhibit biofilm formation ([2]; VRE): Neither compound was able to inhibit
- ability to inhibit biofilm formation (S. epidermidis [3]): Neither compound was able to inhibit

- zinc binding, change of 1H NMR signals [7]: no change
Structure (SMILES): O=C(O)c1c(Cl)c(Cl)c(Cl)c(Cl)c1C(=O)Nc1ccccc1 [Compound 18, reference compound]
- ability to inhibit biofilm formation (MRSA [1]): Neither compound was able to inhibit
- ability to inhibit biofilm formation ([2]; VRE): Neither compound was able to inhibit
- ability to inhibit biofilm formation (S. epidermidis [3]): Neither compound was able to inhibit

- IC50 (MRSA [1]; read-out: IC50): > 300 µM
- IC50 [2, 10]: 69 ± 10 µM
- IC50 (S. epidermidis [3]): 24 ± 6.3 µM
- EC50 (MRSA [4]; read-out: EC50 (converted)): > 300 µM
- EC50 ([5]; read-out: EC50 (converted)): 110 µM
- EC50 (S. epidermidis [6]): 81 µM
Structure (SMILES): Nc1nc2ccc(N3C(=O)c4cccc5cccc(c45)C3=O)cc2[nH]1 [Compound 15]

- IC50 (MRSA [1]; read-out: IC50): 42 ± 2.4 µM
- IC50 [2, 10]: 1.9 ± 0.5 µM
- IC50 (S. epidermidis [3]): 170 ± 14 µM
- EC50 (MRSA [4]; read-out: EC50 (converted)): 48 µM
- EC50 ([5]; read-out: EC50 (converted)): 230 µM
- EC50 (S. epidermidis [6]): 180 µM
Structure (SMILES): Nc1nc2ccc(N3C(=O)CC4(CCC4)CC3=O)cc2[nH]1 [Compound 14]

- IC50 (MRSA [1]; read-out: IC50): 5.7 ± 0.5 µM
- IC50 [2, 10]: 7.4 ± 1.7 µM
- IC50 (S. epidermidis [3]): 1.5 ± 0.5 µM
- EC50 (MRSA [4]; read-out: EC50 (converted)): 9.5 µM
- EC50 ([5]; read-out: EC50 (converted)): 31 µM
- EC50 (S. epidermidis [6]): 33 µM
Structure (SMILES): Nc1nc2ccc(N3C(=O)[C@@H]4[C@H](C3=O)C3(Cl)C(Cl)=C(Cl)C4(Cl)C3(Cl)Cl)cc2[nH]1 [Compound 16]
